The results in this text go back to ChEMBL document CHEMBL1155321, “Dopamine D3 receptor antagonists: the quest for a potentially selective PET ligand. Part 3: Radiosynthesis and in vivo studies” (Bioorg Med Chem Lett, 2009).

Data set [1] is described as follows: Intrinsic clearance in rat liver microsomes. Type of data set: ADME, Microsome.
Data set [2] can be described thus: Intrinsic clearance in human liver microsomes. Type of data set: ADME, Microsome.

For the molecule `O=C1N(CCN2Cc3ccccc3C2)CCN1c1cccc(Cl)c1`, the results for the CLint scaled in data set [1] and in data set [2] were 36.9 mL/min/kg and 8.9 mL/min/kg, respectively.
